Values after ≈ are worked out from the molar mass of the structure shown.
Key:
P. aeruginosa ATCC 27853 = experiment: Antibacterial MIC, broth microdilution (EUCAST); assay type: cell-based, Pseudomonas aeruginosa; conditions: for MIC: Pseudomonas aeruginosa, ATCC27853, 24 h, Mueller-Hinton broth
Procedure: (§1) Minimum inhibitory concentrations (MICs) of compounds was determined by the broth microdilution assay in 96-well plates (Eppendorf, Hamburg, Germany) according to the EUCAST rules for antimicrobial susceptibility testing in full Mueller-Hinton broth (MH). The concentrations of compounds to be tested ranged from 1 to 2048 µg/mL. The MIC was determined as the lowest concentration of an antibiotic for which no visible bacterial growth could be observed after 24 h of incubation.

[1] = test system: S. aureus MRSA clinical isolate; experiment: Antibacterial MIC, broth microdilution (EUCAST); assay type: cell-based, Staphylococcus aureus; conditions: for MIC: Staphylococcus aureus, MRSA, 24 h, Mueller-Hinton broth
Procedure: as §1

[2] = test system: S. aureus ATCC 29213 (MSSA); experiment: Antibacterial MIC, broth microdilution (EUCAST); assay type: cell-based, Staphylococcus aureus; conditions: for MIC: Staphylococcus aureus
Procedure: as §1

[3] = Cytotoxicity, MTT on EBL cells; conditions: bovine, EBL cells (embryonic bovine lung)
Procedure: (§3) Cytotoxicity of compounds was determined using the microtetrazolium test (MTT) on EBL cells. The cells were cultured in DMEM—Dulbecco’s Modified Eagle’s Medium (Sigma Aldrich, St. Louis, MO, USA) supplemented with 10% FBS, 2 mM L-glutamine, 100 µg/mL penicillin and 100 µg/mL streptomycin. Cells were seeded in 96-well plates with the density of 3000 cells per well and left overnight to allow for the attachment. Cells were next cultured at 37 °C and 5% CO2 in the presence of compounds of interest at various concentrations from 1.25 to 160 µg/mL. After 24 h of cultivation the cells were subjected to MTT-assay. The formazan was solubilized by DMSO and the optical density was measured on Tecan Infinite 200Pro at 570 nm. The concentration required to inhibit cellular dehydrogenase activity by 50% (CC50 value) was calculated by using GraphPad Prism 6.0 software (GraphPad software, San Diego, CA, USA).

[4] = test system: Candida albicans 703 clinical isolate; experiment: Antifungal MIC, broth microdilution (CLSI M27-A3); conditions: for MIC: Candida albicans, 24 h, read-out: MIC C. albicans 703 Clinical Isolate
[5] = test system: influenza virus A/Puerto Rico/8/34 (H1N1); experiment: Antiviral cell protection assay in MDCK cells; assay type: cell-based; conditions: H1N1, MDCK, 72 h
in vitro = conditions: dog
[6] = test system: EBL cells (embryonic bovine lung); experiment: Cytotoxicity, MTT on EBL cells
Procedure: as §3

[7] = test system: red blood cells from laboratory mice; experiment: Erythrotoxicity (hemolytic activity); assay type: cell-based; conditions: 100 μM, 1, 3 and 5 h of incubation
Procedure: No significant hemolytic activity was detected at a concentration of 1 μM (Figure 3B).
(§2) To evaluate the erythrotoxicity, antioxidant and membrane-protective activity of the compounds, we used 0.5% (v/v) suspension of red blood cells from laboratory mice in phosphate-buffered saline (PBS, pH 7.4). The test substances were previously dissolved in ethanol. Erythrotoxicity (hemolytic activity) was evaluated by the degree of hemolysis of red blood cells 1–5 h after the introduction of solutions of the compounds. Membrane-protective and antioxidant activity was determined by the degree of inhibition of H2O2-induced hemolysis. For this purpose, 30 min after the erythrocyte suspension was added to the solutions of the test compounds, hemolysis was initiated with a solution of hydrogen peroxide (0.006%). Then, the reaction mixture was incubated in a thermostatic shaker Biosan ES-20 with slow stirring at 37 °C for 5 h. An aliquot was taken from the incubation medium every hour, centrifuged for 5 min (1600× g), and the degree of hemolysis was determined by the hemoglobin content in the supernatant on a ThermoSpectromic Genesys 20 spectrophotometer (Thermo Fisher Scientific, Waltham, MA, USA) at 524 nm. The percentage of hemolysis was calculated in relation to the complete hemolysis of the sample. Each experiment was designed with 4–8 replicates. Statistical data processing and charting were performed using the Microsoft Office Excel 2007 software package (Microsoft, Redmond, WA, USA). The data represent the mean ± SE.
Figure 3 Hemolytic activity of unsymmetrical disulfides at the concentration of 100 μM (A) and 1 μM (B) after 1, 3 and 5 h of incubation.

[8] = test system: red blood cells from laboratory mice; experiment: Membrane-protective activity: H2O2-induced hemolysis of erythrocytes; assay type: cell-based; conditions: 1 μM, 1–5 h
Procedure: The membrane-protective properties of the compounds were evaluated in the model of oxidative hemolysis of erythrocytes at a concentration of 1 μM in order to avoid the effect of hemolytic activity.
as §2
Figure 4 Effect of unsymmetrical disulfides and Trolox (T) at a concentration of 1 μM on the level of H2O2-induced hemolysis of erythrocytes after 1–5 h of incubation.

| SMILES | MIC (P. aeruginosa ATCC 27853) [µg/mL] | MIC [1] [µg/mL] | MIC ([2]; 24 h, Mueller-Hinton broth) [µg/mL] | melting point | CC50 at 24 h [3] [µg/mL] | MIC [4] [µg/mL] | IC50 [5] [µM] | CC50 (in vitro) [µM] | cytotoxicity on EBL cells, in words [6] | hemolytic activity (erythrotoxicity), in words [7] | membrane-protective activity, in words [8] | activity against P. aeruginosa ATCC 27853, in words (P. aeruginosa ATCC 27853) | antibacterial activity against MRSA, in words [1] | antibacterial activity against MSSA, in words [2] | MIC S. aureus ATCC 29213 (MSSA) ([2]; 24 h, Mueller-Hinton broth) [µg/mL] | antifungal activity against Candida albicans 703, in words [4] |
| --- | --- | --- | --- | --- | --- | --- | --- | --- | --- | --- | --- | --- | --- | --- | --- | --- |
| NCC[C@H](O)C(=O)N[C@@H]1C[C@H](N)[C@@H](O[C@H]2O[C@H](CN)[C@@H](O)[C@H](O)[C@H]2O)[C@H](O)[C@H]1O[C@H]1O[C@H](CO)[C@@H](O)[C@H](N)[C@H]1O [Amikacin, reference compound] | 4 (≈ 6.83 µM) | 4 (≈ 6.83 µM) | 4 (≈ 6.83 µM) | – | – | – | – | – | – | – | – | – | – | – | – | – |
| COC(=O)c1cccnc1SS[C@H]1C[C@H](C)CC[C@H]1C(C)C [Compound 1c, Methyl 2-(((1S,2S,5R)-2-isopropyl-5-methylcyclohexyl)disulfanyl)pyridine-3-carboxylate] | 32 (≈ 94.2 µM) | 32 (≈ 94.2 µM) | 32 (≈ 94.2 µM) | 96 °C | 18.3 (≈ 53.9 µM) | 512 (≈ 1510 µM) | 12 ± 2 | 31 ± 2 | – | – | – | – | – | – | – | – |
| CC(C)[C@@H]1CC[C@@H](C)C[C@@H]1SSc1ncccc1C(=O)O [Compound 1d, 2-(((1S,2S,5R)-2-isopropyl-5-methylcyclohexyl)disulfanyl)nicotinic acid] | 1020 (≈ 3150 µM) | 64 (≈ 197 µM) | 32 (≈ 98.3 µM) | 160 to 161 °C (dec.) | 47.8 (≈ 147 µM) | 64 (≈ 197 µM) | > 34 | 38 ± 3 | – | – | – | – | – | – | – | – |
| CC1(C)[C@H]2CC[C@@H](CSSc3nc4ccccc4s3)[C@@H]1C2 [Compound 2a, 2-((((1S,2R,5S)-6,6-dimethylbicyclo [3.1.1]heptan-2-yl)methyl)disulfaneyl)benzo[d]thiazole] | 64 (≈ 191 µM) | 128 (≈ 381 µM) | 128 (≈ 381 µM) | – | 104 (≈ 311 µM) | 1020 (≈ 3050 µM) | 13 ± 3 | 99 ± 5 | least toxicity | Low hemolytic activity | most active | repressed the growth | – | – | – | – |
| Cc1cc(C)nc(SSC[C@@H]2CC[C@H]3C[C@@H]2C3(C)C)n1 [Compound 2b, 2-((((1S,2R,5S)-6,6-dimethylbicyclo[3.1.1]heptan-2-yl)methyl)disulfanyl)-4,6-dimethylpyrimidine] | 32 (≈ 104 µM) | 64 (≈ 207 µM) | 16 (≈ 51.9 µM) | – | 13.6 (≈ 44.1 µM) | > 1020 | 13 ± 2 | 35 ± 3 | – | – | most active | repressed the growth | – | – | – | – |
| COC(=O)c1cccnc1SSC[C@@H]1CC[C@H]2C[C@@H]1C2(C)C [Compound 2c, Methyl 2-((((1S,2R,5S)-6,6-dimethylbicyclo[3.1.1]heptan-2-yl)methyl)disulfaneyl)pyridine-3-carboxylate] | 1020 (≈ 3030 µM) | 64 (≈ 190 µM) | > 1020 | – | 123 (≈ 363 µM) | 1020 (≈ 3030 µM) | 19 ± 3 | 104 ± 8 | least toxicity | – | most active | – | showing activity | inactive | – | – |
| CC1(C)[C@H]2CC[C@@H](CSSc3ncccc3C(=O)O)[C@@H]1C2 [Compound 2d, 2-((((1S,2R,5S)-6,6-dimethylbicyclo[3.1.1]heptan-2-yl)methyl)disulfanyl)nicotinic acid] | 1020 (≈ 3170 µM) | 512 (≈ 1580 µM) | 16 (≈ 49.5 µM) | – | 18.1 (≈ 56 µM) | 128 (≈ 396 µM) | 5 ± 1 | 60 ± 4 | – | – | – | – | – | – | 32 (≈ 98.9 µM) | – |
| CC1(C)[C@H]2C[C@H](SSc3nc4ccccc4s3)[C@@H](CO)[C@@H]1C2 [Compound 3a, ((1S,2R,3S,5R)-3-(benzo[d]thiazol-2-yldisulfanyl)-6,6-dimethylbicyclo[3.1.1]heptan-2-yl)methanol] | 64 (≈ 182 µM) | 32 (≈ 91 µM) | 32 (≈ 91 µM) | – | 7.1 (≈ 20.2 µM) | 1020 (≈ 2910 µM) | 9 ± 3 | 30 ± 3 | – | – | – | repressed the growth | – | – | – | – |
| Cc1cc(C)nc(SS[C@H]2C[C@H]3C[C@@H]([C@@H]2CO)C3(C)C)n1 [Compound 3b, ((1S,2R,3S,5R)-3-((4,6-dimethylpyrimidin-2-yl)disulfanyl)-6,6-dimethylbicyclo[3.1.1]heptan-2-yl)methanol] | 1020 (≈ 3160 µM) | 32 (≈ 98.6 µM) | 32 (≈ 98.6 µM) | – | 8.2 (≈ 25.3 µM) | 512 (≈ 1580 µM) | 16 ± 3 | 83 ± 4 | – | – | most active | – | – | – | – | – |
| CC1(C)[C@H]2C[C@H](O)[C@@H](CSSc3nc4ccccc4s3)[C@@H]1C2 [Compound 4a, (1S,2S,3S,5R)-2-((benzo[d]thiazol-2-yldisulfanyl)methyl)-6,6-dimethylbicyclo[3.1.1]heptan-3-ol] | 1020 (≈ 2910 µM) | > 1020 | 256 (≈ 728 µM) | – | – | > 1020 | > 31 | 68 ± 6 | – | – | most active | – | – | – | – | – |
| Cc1cc(C)nc(SSC[C@@H]2[C@@H](O)C[C@H]3C[C@@H]2C3(C)C)n1 [Compound 4b, (1S,2S,3S,5R)-2-(((4,6-dimethylpyrimidin-2-yl)disulfanyl)methyl)-6,6-dimethylbicyclo[3.1.1]heptan-3-ol] | > 1020 | > 1020 | > 1020 | – | – | > 1020 | 12 ± 3 | 34 ± 2 | – | – | most active | – | – | – | – | – |
| CC1(C)[C@H]2C[C@H](O)[C@@H](CSSc3ncccc3C(=O)O)[C@@H]1C2 [Compound 4d, 2-((((1S,2S,3S,5R)-3-hydroxy-6,6-dimethylbicyclo[3.1.1]heptan-2-yl)methyl)disulfanyl)nicotinic acid] | 1020 (≈ 3020 µM) | 64 (≈ 189 µM) | 512 (≈ 1510 µM) | – | 11.1 (≈ 32.8 µM) | 16 (≈ 47.1 µM) | > 97 | 178 ± 11 | – | – | most active | – | – | – | – | active against yeast |
| OC(Cn1cncn1)(Cn1cncn1)c1ccc(F)cc1F [Fluconazole, reference compound] | – | – | – | – | – | 16 (≈ 52.2 µM) | – | – | – | – | – | – | – | – | – | – |
| CC(N)C12CC3CC(CC(C3)C1)C2 (stereo not shown) [Rimantadine, reference compound] | – | – | – | – | – | – | 57 ± 8 | 367 ± 28 | – | – | – | – | – | – | – | – |
